Article PMC6394990, “Detailed characterization of the solution kinetics and thermodynamics of biotin, biocytin and HABA binding to avidin and streptavidin” (PLoS ONE, 2019)
Values joined by “and” are separate entries in the source; they are usually repeats but may differ in a detail not shown here. Equal entries are not always repeated. “Also recorded” adds a separate entry of the source.

Experiments:
avidin (AV) [1] = molecular target: T1, avidin (AV) (Gallus gallus, UniProt P02701); assay: Dissociation (displacement/replacement) of dye-labeled biotin complexes by unlabeled B7; assay type: binding; settings: AB1; probe 20 nM, AV 260 nM; unlabeled B7 2,000 nM; 20°C
T1 construct: purchased Calbiochem (La Jolla, CA)
Procedure: Biotin dissociation was determined using labelled biotin (BcO and BFl) displaced by unlabeled biotin using minimally occupied and fully occupied binding sites. In the minimally occupied measurements, SAV is prepared with less than one site on average occupied by labelled biotin (AB1), using 800 nM SAV and 40 nM of BcO or BFl. For saturated SAV-labelled biotin (AB4) complexes, equimolar binding sites and labelled ligand were prepared, 40 nM SAV and 40 nM of BcO or BFl. The AB1 complexes were challenged in displacement experiments with several concentrations of unlabeled B7 (1500 nM, 1750 nM, 2000 nM and 2500 nM) at 20 ± 0.1°C. […]
The rss measurements were collected using the Giblin-Parkhurst modification of the Wampler-Desa method as described previously. The fluorescence signal was detected in a model A-1010 Alphascan fluorimeter (Photon Technologies, Inc., Birmingham, NJ) equipped with an R928 PMT (Hamamatsu, Bridgewater, NJ). […] The fluorimeter G factor was determined using a film polarizer and analyzer with an excitation at 488 nm provided by a xenon arc lamp (model A1010, Photon Technologies Inc, Princeton, NJ). The dissociation reactions of dye-labeled B7 and protein complexes were monitored by fluorescence changes and were also collected in the fluorimeter described above. […]

[2] = Absorbance and fluorescence emission spectra, unbound probe; assay type: physicochemical; settings: unbound dye
Procedure: The lifetimes (τ), steady state anisotropies (rss), time-resolved anisotropies (rt) and quantum yields (QY) of the complexes (at 20 ± 0.1°C and pH 8) were collected with a dye-labeled B7 probe concentration of 20–40 nM and 1040–2080 nM of either protein (AV or SAV) to ensure that only one binding site in the tetramer was filled with a ligand (AB1 filling model).
The QY values were obtained by using a reference fluorophore of known quantum yield and were calculated according to Parker and Rees, where the reference dye was fluorescein in 0.1N sodium hydroxide solution [46]. The emission fluorescence scans were collected from 480 nm to 700 nm with the excitation light set at 460 nm provided by the xenon arc lamp described above. These measurements were made on the AB1 complexes at high protein concentration.
Supplementary file pone.0204194.s001.docx: S1 Fig Absorbance spectra of dye-labeled B7 probes and respective complexes with AV and SAV. […] The spectra are normalized to the calculated molar absorptivies. […] The labeled probes and protein concentrations were 1 μM and 10 μM, respectively. (DOCX) Click here for additional data file.
Supplementary file pone.0204194.s002.docx: S2 Fig Fluorescence emission spectra of dye-labeled B7 and respective complexes with AV and SAV. […] The probe and protein concentrations were 20 nM and 1040 nM (AB1 filling model), respectively. (DOCX) Click here for additional data file.

avidin (AV) [3] = molecular target: T1, avidin (AV); assay: Intrinsic lifetime, dynamic quantum yield and fraction of non-statically quenched molecules, AV complex; assay type: physicochemical; settings: for Dynamic Quantum Yield Φ / Fraction of Non-Statically Quenched Dye 1-S / Natural Lifetime τ°: AV complex (AB1); for 1-S (4) = QY/F, fraction of non-statically quenched molecules / F (3) = Sat/t° / S / t° (2), intrinsic lifetime of the fluorescence dye: complex with AV; for t° (2), intrinsic lifetime of the fluorescence dye: in ns

T1 sequence (P02701 25-152): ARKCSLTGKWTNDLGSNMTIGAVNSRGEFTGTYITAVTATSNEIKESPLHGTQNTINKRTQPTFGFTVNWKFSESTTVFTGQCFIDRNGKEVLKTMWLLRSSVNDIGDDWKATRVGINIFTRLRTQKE

| SMILES | koff displacement / koff replacement of AV complexes (avidin (AV) [1]) | Abs (nm) [2] [nm] | Emission (nm) [2] [nm] | Dynamic Quantum Yield Φ (avidin (AV) [3]) | Fraction of Non-Statically Quenched Dye 1-S (avidin (AV) [3]) | Natural Lifetime τ° (avidin (AV) [3]) | 1-S (4) = QY/F, fraction of non-statically quenched molecules (avidin (AV) [3]) | F (3) = Sat/t° (avidin (AV) [3]) | S (avidin (AV) [3]) | t° (2), intrinsic lifetime of the fluorescence dye (avidin (AV) [3]) |
| --- | --- | --- | --- | --- | --- | --- | --- | --- | --- | --- |
| O=C(CCCC[C@@H]1SC[C@@H]2NC(=O)N[C@@H]21)NCCNC(=O)c1ccc(-c2c3ccc(=O)cc-3oc3cc(O)ccc23)c(C(=O)O)c1 [BFl, Biotin-4-fluorescein] | could not detect neither displacement nor replacement; also recorded: could not be detected | 494 | 530 | 0.90 ± 0.02 | 0.49 ± 0.03 | 4.7 ± 0.1 | 0.49 and 0.49 ± 0.03 | 0.90 ± 0.02 | 0.51 | 4.7 ± 0.1 |
| NC(CCCCNC(=O)CCCC[C@@H]1SC[C@@H]2NC(=O)N[C@@H]21)C(=O)NCCCCCNC(=O)c1ccc(-c2c3cc(F)c(=O)cc-3oc3cc(O)c(F)cc23)c(C(=O)O)c1 (some centres unmarked) [BcO, Oregon green 488 Biocytin] | could not detect neither displacement nor replacement; also recorded: could not be detected | 495 | 523 | 0.88 ± 0.02 | 0.70 ± 0.03 | 4.9 ± 0.1 | 0.7 and 0.70 ± 0.03 | 0.88 ± 0.02 | 0.3 | 4.9 ± 0.1 |
